Experiments:
[1] = biological target: Growth hormone secretagogue receptor type 1 (Homo sapiens) (UniProt Q92847); assay: Inhibition of human Ghrelin receptor at 10 uM by CEREP assay
[2] = biological target: Histamine H1 receptor (Homo sapiens) (UniProt P35367); assay: Inhibition of human H1 receptor at 10 uM by CEREP assay
[3] = biological target: Histamine H2 receptor (Homo sapiens) (UniProt P25021); assay: Inhibition of human H2 receptor at 10 uM by CEREP assay
Homo sapiens [4] = species: Homo sapiens; assay: Inhibition of human I2 receptor at 10 uM by CEREP assay
[5] = Inhibition of ML1 receptor at 10 uM by CEREP assay
[6] = biological target: Muscarinic acetylcholine receptor M2 (Homo sapiens) (UniProt P08172); assay: Inhibition of human M2 receptor at 10 uM by CEREP assay
[7] = biological target: Muscarinic acetylcholine receptor M3 (Homo sapiens) (UniProt P20309); assay: Inhibition of human M3 receptor at 10 uM by CEREP assay
Sequence of Muscarinic acetylcholine receptor M3 (Homo sapiens) (P20309 whole entry, looked up): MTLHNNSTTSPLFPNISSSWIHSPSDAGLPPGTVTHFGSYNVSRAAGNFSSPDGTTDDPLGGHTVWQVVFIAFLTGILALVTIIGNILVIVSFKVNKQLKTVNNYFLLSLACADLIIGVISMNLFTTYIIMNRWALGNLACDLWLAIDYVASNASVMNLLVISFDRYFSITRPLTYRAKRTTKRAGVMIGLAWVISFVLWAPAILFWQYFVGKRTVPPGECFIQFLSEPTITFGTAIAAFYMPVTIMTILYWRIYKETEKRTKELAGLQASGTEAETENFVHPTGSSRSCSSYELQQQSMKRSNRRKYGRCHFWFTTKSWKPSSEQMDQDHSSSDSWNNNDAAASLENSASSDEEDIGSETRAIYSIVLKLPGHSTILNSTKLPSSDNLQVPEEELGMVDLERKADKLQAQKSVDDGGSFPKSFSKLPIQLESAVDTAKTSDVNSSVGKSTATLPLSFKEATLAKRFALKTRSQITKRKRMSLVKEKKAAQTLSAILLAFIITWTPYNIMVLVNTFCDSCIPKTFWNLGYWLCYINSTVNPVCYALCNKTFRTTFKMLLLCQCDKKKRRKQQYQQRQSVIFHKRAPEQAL

[8] = biological target: Substance-K receptor (Homo sapiens) (UniProt P21452); assay: Inhibition of human Nk2 receptor at 10 uM by CEREP assay
Sequence of Substance-K receptor (Homo sapiens) (P21452 whole entry): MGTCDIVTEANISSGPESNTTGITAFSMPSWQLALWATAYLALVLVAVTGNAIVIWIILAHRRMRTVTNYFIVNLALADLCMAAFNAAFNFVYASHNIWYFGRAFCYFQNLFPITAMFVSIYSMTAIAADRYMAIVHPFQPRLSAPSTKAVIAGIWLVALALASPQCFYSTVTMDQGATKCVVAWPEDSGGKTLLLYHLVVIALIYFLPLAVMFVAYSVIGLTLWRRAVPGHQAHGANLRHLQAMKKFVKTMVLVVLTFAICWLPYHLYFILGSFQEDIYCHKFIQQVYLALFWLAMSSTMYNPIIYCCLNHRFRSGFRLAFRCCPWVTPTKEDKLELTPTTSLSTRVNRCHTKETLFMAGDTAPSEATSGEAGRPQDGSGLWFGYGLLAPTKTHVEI

Homo sapiens [9] = species: Homo sapiens; assay: Inhibition of human DOP/delta 2 receptor at 10 uM by CEREP assay
[10] = Inhibition of P2Y receptor at 10 uM by CEREP assay
[11] = biological target: 5-hydroxytryptamine receptor 1A (Homo sapiens) (UniProt P08908); assay: Inhibition of human 5-HT1A receptor at 10 uM by CEREP assay
[12] = biological target: 5-hydroxytryptamine receptor 1D (Homo sapiens) (UniProt P28221); assay: Inhibition of 5-HT1D receptor at 10 uM by CEREP assay
[13] = biological target: 5-hydroxytryptamine receptor 2A (Homo sapiens) (UniProt P28223); assay: Inhibition of human 5-HT2A receptor at 10 uM by CEREP assay
Sequence of 5-hydroxytryptamine receptor 2A (Homo sapiens) (P28223 whole entry): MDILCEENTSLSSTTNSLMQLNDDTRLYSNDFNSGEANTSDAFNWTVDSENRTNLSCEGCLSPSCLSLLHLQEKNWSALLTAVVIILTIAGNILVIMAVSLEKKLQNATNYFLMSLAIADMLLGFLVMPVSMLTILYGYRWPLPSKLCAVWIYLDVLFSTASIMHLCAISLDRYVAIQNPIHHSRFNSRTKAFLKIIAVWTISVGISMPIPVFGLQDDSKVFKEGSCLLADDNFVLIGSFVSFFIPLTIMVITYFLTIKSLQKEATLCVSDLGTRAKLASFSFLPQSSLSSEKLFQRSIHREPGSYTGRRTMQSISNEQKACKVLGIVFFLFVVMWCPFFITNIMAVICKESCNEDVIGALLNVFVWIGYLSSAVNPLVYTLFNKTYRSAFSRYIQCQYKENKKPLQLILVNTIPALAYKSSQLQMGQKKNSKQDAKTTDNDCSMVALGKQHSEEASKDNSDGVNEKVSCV

[14] = biological target: Estrogen receptor (Homo sapiens) (UniProt P03372); assay: Inhibition of human estrogen receptor at 10 uM by CEREP assay
[15] = biological target: Progesterone receptor (Homo sapiens) (UniProt P06401); assay: Inhibition of human progesterone receptor at 10 uM by CEREP assay
Sequence of Progesterone receptor (Homo sapiens) (P06401 whole entry): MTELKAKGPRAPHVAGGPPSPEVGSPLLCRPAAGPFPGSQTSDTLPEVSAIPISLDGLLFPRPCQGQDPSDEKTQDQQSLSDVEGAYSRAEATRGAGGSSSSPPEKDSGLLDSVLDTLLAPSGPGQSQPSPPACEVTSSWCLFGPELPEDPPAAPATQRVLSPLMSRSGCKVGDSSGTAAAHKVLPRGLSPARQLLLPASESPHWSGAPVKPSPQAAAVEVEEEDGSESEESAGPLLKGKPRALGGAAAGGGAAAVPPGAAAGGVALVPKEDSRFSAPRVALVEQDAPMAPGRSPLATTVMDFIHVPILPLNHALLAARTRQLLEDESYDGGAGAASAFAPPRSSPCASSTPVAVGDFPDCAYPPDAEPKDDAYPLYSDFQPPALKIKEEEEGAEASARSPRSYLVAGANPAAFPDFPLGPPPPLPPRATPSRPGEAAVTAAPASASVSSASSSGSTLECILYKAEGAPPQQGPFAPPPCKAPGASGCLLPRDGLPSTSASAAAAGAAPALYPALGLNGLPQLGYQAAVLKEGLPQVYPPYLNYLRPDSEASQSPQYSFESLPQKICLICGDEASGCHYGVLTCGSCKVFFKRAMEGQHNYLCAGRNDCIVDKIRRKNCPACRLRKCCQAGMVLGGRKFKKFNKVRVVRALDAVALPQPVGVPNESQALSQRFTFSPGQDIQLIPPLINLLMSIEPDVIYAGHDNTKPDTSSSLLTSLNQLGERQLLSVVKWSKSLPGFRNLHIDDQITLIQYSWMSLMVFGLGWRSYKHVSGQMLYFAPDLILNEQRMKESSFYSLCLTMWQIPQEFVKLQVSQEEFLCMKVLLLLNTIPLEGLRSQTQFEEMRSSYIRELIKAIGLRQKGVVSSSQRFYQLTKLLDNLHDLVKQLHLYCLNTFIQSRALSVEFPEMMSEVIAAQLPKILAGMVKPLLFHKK

[16] = Inhibition of L-type Ca2+ channel verapamil site at 10 uM by CEREP assay
[17] = biological target: Sodium-dependent serotonin transporter (Homo sapiens) (UniProt P31645); assay: Inhibition of human 5-HT transporter at 10 uM by CEREP assay
Sequence of Sodium-dependent serotonin transporter (Homo sapiens) (P31645 whole entry, looked up): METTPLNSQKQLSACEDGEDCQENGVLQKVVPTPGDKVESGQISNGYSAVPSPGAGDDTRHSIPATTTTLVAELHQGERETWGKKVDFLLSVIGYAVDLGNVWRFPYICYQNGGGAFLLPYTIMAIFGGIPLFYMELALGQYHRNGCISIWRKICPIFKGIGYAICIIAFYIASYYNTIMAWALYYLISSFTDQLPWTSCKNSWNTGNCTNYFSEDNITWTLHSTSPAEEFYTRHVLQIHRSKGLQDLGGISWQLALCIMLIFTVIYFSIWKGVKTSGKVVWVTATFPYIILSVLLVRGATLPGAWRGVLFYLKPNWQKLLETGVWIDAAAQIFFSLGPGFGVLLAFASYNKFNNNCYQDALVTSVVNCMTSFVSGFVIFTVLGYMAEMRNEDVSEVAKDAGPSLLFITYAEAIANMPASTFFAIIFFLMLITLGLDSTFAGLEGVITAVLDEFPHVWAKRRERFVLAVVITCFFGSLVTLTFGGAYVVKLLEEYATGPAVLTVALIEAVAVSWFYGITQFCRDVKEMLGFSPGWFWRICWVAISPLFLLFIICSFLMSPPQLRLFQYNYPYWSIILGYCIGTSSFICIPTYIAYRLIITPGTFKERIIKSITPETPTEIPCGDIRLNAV

[18] = biological target: cGMP-dependent 3',5'-cyclic phosphodiesterase (Homo sapiens) (UniProt O00408); assay: Inhibition of human PDE2 at 10 uM by CEREP assay
[19] = biological target: Phosphodiesterase 4 (Homo sapiens) (UniProt P27815+Q08499+Q07343+Q08493); assay: Inhibition of human PDE4 at 10 uM by CEREP assay; format: protein assay
[20] = biological target: MAO-B (amine oxidase [flavin-containing] B) (Homo sapiens, UniProt P27338); assay: Inhibition of human MAO-B at 10 uM by CEREP assay
Sequence of MAO-B (amine oxidase [flavin-containing] B) (P27338 whole entry): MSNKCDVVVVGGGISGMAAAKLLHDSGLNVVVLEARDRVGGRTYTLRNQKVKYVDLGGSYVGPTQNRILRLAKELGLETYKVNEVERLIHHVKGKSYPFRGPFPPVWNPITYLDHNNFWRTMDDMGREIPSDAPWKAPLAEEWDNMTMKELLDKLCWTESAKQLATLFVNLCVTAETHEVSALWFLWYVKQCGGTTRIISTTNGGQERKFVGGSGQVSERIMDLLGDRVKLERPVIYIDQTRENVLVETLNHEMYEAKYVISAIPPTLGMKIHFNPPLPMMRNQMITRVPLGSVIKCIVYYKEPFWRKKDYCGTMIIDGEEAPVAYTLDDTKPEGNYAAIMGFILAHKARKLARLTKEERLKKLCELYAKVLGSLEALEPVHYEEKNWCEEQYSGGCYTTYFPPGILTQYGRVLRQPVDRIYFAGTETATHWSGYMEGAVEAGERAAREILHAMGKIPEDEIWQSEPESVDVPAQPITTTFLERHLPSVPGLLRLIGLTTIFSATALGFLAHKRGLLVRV

[21] = Inhibition of Adenylyl cyclase at 10 uM by CEREP assay
[22] = Inhibition of human I1 receptor by CEREP assay
[23] = biological target: 5-hydroxytryptamine receptor 1A (Homo sapiens, UniProt P08908); assay: Inhibition of human 5-HT1A receptor by CEREP assay
[24] = Oral bioavailability in rat at 10 mg/kg; format: ADME, organism-based; details: in vivo
[25] = biological target: Glucagon receptor (Homo sapiens) (UniProt P47871); assay: Inhibition of human glucagon receptor at 10 uM by CEREP assay
Sequence of Glucagon receptor (Homo sapiens) (P47871 whole entry): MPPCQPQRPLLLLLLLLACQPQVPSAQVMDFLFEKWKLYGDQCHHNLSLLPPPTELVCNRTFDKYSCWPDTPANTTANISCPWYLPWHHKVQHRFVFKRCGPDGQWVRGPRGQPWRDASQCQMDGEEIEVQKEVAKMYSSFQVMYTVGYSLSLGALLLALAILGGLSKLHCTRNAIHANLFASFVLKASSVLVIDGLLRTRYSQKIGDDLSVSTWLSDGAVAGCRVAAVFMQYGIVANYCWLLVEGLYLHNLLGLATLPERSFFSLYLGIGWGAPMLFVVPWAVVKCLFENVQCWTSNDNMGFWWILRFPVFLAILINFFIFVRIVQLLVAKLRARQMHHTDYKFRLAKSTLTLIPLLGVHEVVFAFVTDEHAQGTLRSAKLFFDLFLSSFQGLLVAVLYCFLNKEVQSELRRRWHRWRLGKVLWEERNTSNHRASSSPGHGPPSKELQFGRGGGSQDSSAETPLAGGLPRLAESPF

Homo sapiens [26] = species: Homo sapiens; assay: Inhibition of human AMPA receptor at 10 uM by CEREP assay
[27] = biological target: D(3) dopamine receptor (Homo sapiens) (UniProt P35462); assay: Inhibition of human D3 receptor at 10 uM by CEREP assay
Sequence of D(3) dopamine receptor (Homo sapiens) (P35462 whole entry): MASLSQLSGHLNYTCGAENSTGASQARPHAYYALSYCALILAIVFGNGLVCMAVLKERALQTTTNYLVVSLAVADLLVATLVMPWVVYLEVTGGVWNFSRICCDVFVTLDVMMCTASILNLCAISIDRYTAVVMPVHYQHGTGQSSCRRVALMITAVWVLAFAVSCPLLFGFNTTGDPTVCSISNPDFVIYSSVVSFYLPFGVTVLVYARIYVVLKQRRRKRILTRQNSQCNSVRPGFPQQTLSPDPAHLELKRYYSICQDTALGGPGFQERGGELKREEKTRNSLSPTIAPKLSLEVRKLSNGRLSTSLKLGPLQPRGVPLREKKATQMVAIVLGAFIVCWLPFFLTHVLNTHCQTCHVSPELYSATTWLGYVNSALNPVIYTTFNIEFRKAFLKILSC

[28] = biological target: D(4) dopamine receptor (Homo sapiens) (UniProt P21917); assay: Inhibition of human D4.4 receptor at 10 uM by CEREP assay
[29] = biological target: Gastrin/cholecystokinin type B receptor (Homo sapiens) (UniProt P32239); assay: Inhibition of human CCKB receptor at 10 uM by CEREP assay
Sequence of Gastrin/cholecystokinin type B receptor (Homo sapiens) (P32239 whole entry): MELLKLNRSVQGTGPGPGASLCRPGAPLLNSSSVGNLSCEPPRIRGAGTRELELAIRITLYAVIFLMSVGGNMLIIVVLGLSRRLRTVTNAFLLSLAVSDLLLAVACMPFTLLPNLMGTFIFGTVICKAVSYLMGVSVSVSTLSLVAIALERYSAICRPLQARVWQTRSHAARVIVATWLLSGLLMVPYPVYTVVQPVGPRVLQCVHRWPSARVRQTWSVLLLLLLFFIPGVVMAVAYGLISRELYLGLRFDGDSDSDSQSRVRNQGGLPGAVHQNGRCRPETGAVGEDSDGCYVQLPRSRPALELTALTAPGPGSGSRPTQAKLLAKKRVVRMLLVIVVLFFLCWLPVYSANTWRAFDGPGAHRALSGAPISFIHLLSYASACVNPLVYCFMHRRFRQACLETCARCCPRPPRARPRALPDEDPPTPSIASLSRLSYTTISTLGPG

[30] = biological target: Type-2 angiotensin II receptor (Homo sapiens) (UniProt P50052); assay: Inhibition of human AT2 receptor at 10 uM by CEREP assay
[31] = Inhibition of alpha 1 adrenergic receptor at 10 uM by CEREP assay
[32] = biological target: Adenosine receptor A3 (Homo sapiens) (UniProt P0DMS8); assay: Inhibition of human A3 receptor at 10 uM by CEREP assay
[33] = biological target: Glutamate [NMDA] receptor (Homo sapiens) (UniProt Q05586+Q12879+Q13224+O15399+O60391+Q14957+Q8TCU5); assay: Inhibition of human NMDA receptor at 10 uM by CEREP assay

CCc1cccc(CC)c1Cc1ncc[nH]1
inhibition [1]: 3%
inhibition [2]: 1%
inhibition [3]: 4%
inhibition (Homo sapiens [4]): 59%
inhibition [5]: 32%
inhibition [6]: 36%
inhibition [7]: 25%
inhibition [8]: 3%
inhibition (Homo sapiens [9]): 7%
inhibition [10]: 1%
inhibition [11]: 96%
inhibition [12]: 19%
inhibition [13]: -5%
inhibition [14]: -4%
inhibition [15]: -2%
inhibition [16]: 10%
inhibition [17]: 4%
inhibition [18]: -5%
inhibition [19]: -2%
inhibition at 10 µM [20]: 0%
inhibition [21]: 2%
Ki [22]: 660 nM
Ki [23]: 1300 nM
bioavailability [24]: 17%
inhibition [25]: -5%
inhibition (Homo sapiens [26]): 11%
inhibition [27]: 10%
inhibition [28]: -3%
inhibition [29]: 6%
inhibition [30]: -3%
inhibition [31]: 23%
inhibition [32]: 2%
inhibition [33]: 2%

Reference: ChEMBL document CHEMBL2203234, “Optimisation of imidazole compounds as selective TAAR1 agonists: discovery of RO5073012” (Bioorg Med Chem Lett, 2012)
